# Results as given in patent US20250230193A1, “CYCLIC COMPOUND HAVING SELECTIVE KRAS INHIBITORY EFFECT ON HRAS AND NRAS” (CHUGAI SEIYAKU KABUSHIKI KAISHA, priority 2022, published 2025).
# *1 amine or outer side, *2 acyl side, *3 side chain or, on linkers, in order; H or OH if unused. Where a SMILES comes first, the peptide text is derived from it. Bridges are numbered along the chain shown (N, C = ends). [ ]: non-standard residue; d: D form. The star is where a group is joined. hPhe(3,5-F2-4-CF3) = N[C@@H](CCc1cc(F)c(C(F)(F)F)c(F)c1)C(=O)O; X21 = O=C([C@H](Cc1ccc(C(F)(F)F)cc1)N(CC1CCCC1)[*:1])[*:2]; hPhe(3-Cl-4-CF3) = N[C@@H](CCc1ccc(C(F)(F)F)c(Cl)c1)C(=O)O; NPrPhe(4-CF3) = CCCN[C@@H](Cc1ccc(C(F)(F)F)cc1)C(=O)O; NMeGly(cPent) = CN[C@H](C(=O)O)C1CCCC1; NEtLeu = CCN[C@@H](CC(C)C)C(=O)O; NMeD = CN[C@@H](CC(=O)O)C(=O)O; NMeL = CN[C@@H](CC(C)C)C(=O)O; αMeS = C[C@](N)(CO)C(=O)O; Morpholide = C1CN(*)CCO1; NMeA = CN[C@@H](C)C(=O)O; Ac5c = NC1(C(=O)O)CCCC1; Aze = O=C(O)[C@@H]1CCN1; Sar = CNCC(=O)O; tBu = CC(C)(C)*
# What was measured:
# [1] = biological target: GDP-bound NRAS wild-type protein (Homo sapiens, UniProt P01111); assay: Binding to NRAS by surface plasmon resonance (SPR), Single Cycle Kinetics
# [2] = biological target: GDP-bound HRAS wild-type protein (Homo sapiens, UniProt P01112); assay: Binding to HRAS by surface plasmon resonance (SPR), Single Cycle Kinetics
# GDP-bound HRAS wild-type protein, sequence (P01112 whole entry): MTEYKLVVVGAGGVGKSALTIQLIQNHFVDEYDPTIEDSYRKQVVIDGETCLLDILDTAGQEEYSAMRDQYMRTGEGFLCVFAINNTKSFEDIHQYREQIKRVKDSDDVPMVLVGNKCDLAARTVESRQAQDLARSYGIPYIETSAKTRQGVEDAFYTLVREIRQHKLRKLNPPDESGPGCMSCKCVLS
# GDP-bound NRAS wild-type protein, sequence (P01111 whole entry): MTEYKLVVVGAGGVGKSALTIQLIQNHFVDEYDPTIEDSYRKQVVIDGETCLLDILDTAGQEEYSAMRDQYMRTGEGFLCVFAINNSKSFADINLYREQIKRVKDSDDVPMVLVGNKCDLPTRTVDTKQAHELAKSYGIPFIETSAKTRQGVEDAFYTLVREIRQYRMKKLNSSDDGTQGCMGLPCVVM
structure (smiles),measurement,setting,value
CCO[C@@H]1C[C@H]2C(=O)NC3(CC(F)(F)C3)C(=O)N(C)[C@@H](C3CCCC3)C(=O)N3CCC[C@@H]3CC(=O)N(C)[C@@H](CC)C(=O)N[C@@H]([C@@H](C)CC)C(=O)N(C)CC(=O)N(C)[C@H]3C/C=C\CCN(C3=O)[C@@H](Cc3ccc(C(F)(F)F)cc3)C(=O)N(C)CC(=O)N[C@@H](CCc3cc(F)c(C(F)(F)F)c(F)c3)C(=O)N2C1 [PP1609],NRAS/KRAS (ratio of KD value for NRAS to KD value for KRAS),"[1]; KD ratio, GDP-bound NRAS wild-type vs GDP-bound KRAS wild-type, SPR",A (a compound having 10 or more and less than 20 is denoted as A)
same,HRAS/KRAS (ratio of KD value for HRAS to KD value for KRAS),"[2]; KD ratio, GDP-bound HRAS wild-type vs GDP-bound KRAS wild-type, SPR",A (a compound having 10 or more and less than 20 is denoted as A)
CC[C@H](C)[C@@H]1NC(=O)[C@H](CC(C)C)N(C)C(=O)C[C@@H](C(=O)N2CCOCC2)N(C)C(=O)[C@H](C2CCCC2)N(C)C(=O)C2(CC2)NC(=O)[C@@H]2CCCN2C(=O)[C@H](CCc2cc(F)c(C(F)(F)F)c(F)c2)NC(=O)CN(C)C(=O)[C@H](Cc2ccc(C(F)(F)F)cc2)N2CCCC[C@@H](C2=O)N(C)C(=O)CN(C)C1=O [PP0559],NRAS/KRAS (ratio of KD value with respect to GDP-bound NRAS wild-type protein to KD value with respect to KRAS),[1]; SPR,B (a compound having 3 or more and less than 10 is denoted as B)
same,HRAS/KRAS (ratio of KD value with respect to GDP-bound HRAS wild-type protein to KD value with respect to KRAS),[2]; SPR,B (a compound having 3 or more and less than 10 is denoted as B)
"CCCN1C(=O)[C@@H]2CCN2C(=O)CN(C)C(=O)[C@H]([C@@H](C)CC)NC(=O)[C@H](CC(C)C)N(C)C(=O)C[C@@H](C(=O)N2CCOCC2)N(C)C(=O)[C@H](C2CCCC2)N(C)C(=O)[C@](C)(COC(C)(C)C)NC(=O)[C@@H]2CCCN2C(=O)[C@H](CCc2cc(F)c(C(F)(F)F)c(F)c2)NC(=O)CN(C)C(=O)[C@@H]1Cc1ccc(C(F)(F)F)cc1 [PP0800] ([NMeL]I[Sar][Aze][NPrPhe(4-CF3)][Sar][hPhe(3,5-F2-4-CF3)]P[αMeS](tBu)[NMeGly(cPent)][NMeD]-Morpholide; lactam N-11)",NRAS/KRAS (ratio of KD value with respect to GDP-bound NRAS wild-type protein to KD value with respect to KRAS),[1]; SPR,C (A compound having a KD ratio of 0.1 or more and less than 3 is denoted as C)
same,HRAS/KRAS (ratio of KD value with respect to GDP-bound HRAS wild-type protein to KD value with respect to KRAS),[2]; SPR,B (a compound having 3 or more and less than 10 is denoted as B)
CCO[C@@H]1C[C@H]2C(=O)NC3(CC(C)(C)C3)C(=O)N(C)[C@@H](C(CC)CC)C(=O)N(C)[C@H](C(=O)N(C)C)CC(=O)N(C)[C@@H](CC3CC3)C(=O)N[C@@H]([C@@H](C)CC)C(=O)N(C)CC(=O)N(C)[C@H]3C/C=C\CCN(C3=O)[C@@H](Cc3ccc(C)cc3)C(=O)N(C)CC(=O)N[C@@H](CCc3ccc(C(F)(F)F)c(OC)c3)C(=O)N2C1 [PP2166],NRAS/KRAS (ratio of KD value with respect to NRAS to KD value with respect to KRAS),"[1]; SPR, GDP-bound NRAS wild-type vs GDP-bound KRAS wild-type",A (a compound having 10 or more and less than 20 is denoted as A)
same,HRAS/KRAS (ratio of KD value with respect to HRAS to KD value with respect to KRAS),"[2]; SPR, GDP-bound HRAS wild-type vs GDP-bound KRAS wild-type",A (a compound having 10 or more and less than 20 is denoted as A)
CC[C@H](C)[C@@H]1NC(=O)[C@H](CC(C)C)N(C)C(=O)C[C@@H](C(=O)N2CCOCC2)N(C)C(=O)[C@H](C2CCCC2)N(C)C(=O)C2(CCCC2)NC(=O)[C@@H]2CCCN2C(=O)[C@H](CCc2ccc(C(F)(F)F)c(Cl)c2)NC(=O)CN(C)C(=O)[C@H](Cc2ccc(C(F)(F)F)cc2)N(CC2CCCC2)C(=O)CN(C)C(=O)CN(C)C1=O [PP0124] ([NMeL]I[Sar][Sar][X21][Sar][hPhe(3-Cl-4-CF3)]P[Ac5c][NMeGly(cPent)][NMeD]-Morpholide; lactam N-11),NRAS/KRAS (ratio of KD for GDP-bound NRAS wild-type to KD for KRAS),[1]; SPR,C (A compound having a KD ratio of 0.1 or more and less than 3 is denoted as C)
same,HRAS/KRAS (ratio of KD for GDP-bound HRAS wild-type to KD for KRAS),[2]; SPR,C (A compound having a KD ratio of 0.1 or more and less than 3 is denoted as C)
CCC[C@H]1C(=O)N[C@@H]([C@@H](C)CC)C(=O)N(C)CC(=O)N(C)[C@H]2C/C=C\CCN(C2=O)[C@@H](Cc2ccc(C(F)(F)F)cc2)C(=O)N(C)CC(=O)N[C@@H](CCc2ccc(Cl)c(Cl)c2)C(=O)N2C[C@H](OCC)C[C@H]2C(=O)NC2(CC(C)(C)C2)C(=O)N(C)[C@@H](CC2CC2)C(=O)N(C)[C@H](C(=O)N(C)C)CC(=O)N1C [PP2811],NRAS/KRAS (ratio of KD value with respect to GDP-bound NRAS wild-type protein to KD value with respect to KRAS),[1]; class symbols,A (a compound having 10 or more and less than 20 is denoted as A)
same,HRAS/KRAS (ratio of KD value with respect to GDP-bound HRAS wild-type protein to KD value with respect to KRAS),[2]; class symbols,A (a compound having 10 or more and less than 20 is denoted as A)
CCCN1C(=O)[C@@H]2CCN2C(=O)[C@H](C)N(C)C(=O)[C@H]([C@@H](C)CC)NC(=O)[C@H](CC(C)C)N(CC)C(=O)C[C@@H](C(=O)N2CCOCC2)N(C)C(=O)[C@H](C2CCCC2)N(C)C(=O)C2(CCCC2)NC(=O)[C@@H]2CCCN2C(=O)[C@H](CCc2ccc(C(F)(F)F)c(Cl)c2)NC(=O)CN(C)C(=O)[C@@H]1Cc1ccc(C(F)(F)F)cc1 [PP0151] ([NEtLeu]I[NMeA][Aze][NPrPhe(4-CF3)][Sar][hPhe(3-Cl-4-CF3)]P[Ac5c][NMeGly(cPent)][NMeD]-Morpholide; lactam N-11),NRAS/KRAS (ratio of KD for GDP-bound NRAS wild-type to KD for KRAS),[1]; SPR,C (A compound having a KD ratio of 0.1 or more and less than 3 is denoted as C)
same,HRAS/KRAS (ratio of KD for GDP-bound HRAS wild-type to KD for KRAS),[2]; SPR,C (A compound having a KD ratio of 0.1 or more and less than 3 is denoted as C)
